Laboratory results published in US20220362299A1, “ENGINEERED NATURAL KILLER CELLS AND METHODS FOR USING THE SAME IN IMMUNOTHERAPY AND AUTOPHAGY INHIBITON TECHNIQUES” (Purdue Research Foundation, priority 2019, published 2022).
Like-named read-outs stand apart in the source and are kept apart here.

How the values were obtained:
[1] = test system: GBM43 cells; assay: Chemokine mRNA in GBM43 cells by RT-PCR; format: cell-based, human; settings: vs control
Method: Total RNAs were extracted using the mirVana™ miRNA Isolation Kit and the concentrations determined with a Qubit 4 Fluorometer. The RNA (80 ng) from each sample was reverse-transcribed using the qScript™ One-Step SYBR® Green qRT-PCR kit in a ViiA-7 RT-PCR system (Thermo Fisher Scientific, Waltham, Mass.). The GAPDH gene was used as the endogenous control. The comparative Ct values of genes of interest were normalized to the Ct value of GAPDH. The 2^−Δct method was used to determine the relative expression of the genes, while the 2^−ΔΔct method was used to calculate fold changes of gene expression over control.

[2] = test system: CD73; assay: CD73 activity of GBM43 cells (AMP hydrolysis, malachite green phosphate assay); format: cell-based, human; settings: various concentrations of CQ, 24 h
Method: To test for CD73 activity and its ability to generate adenosine, GBM43 cells were seeded at 2×10^4 cells per well in a 96-well plate in complete DMEM. After overnight incubation, GBM43 cells were incubated with anti-CD73 scFv following uPA (100 nM)-mediated cleavage from either CD73.mCAR-NK92 or CD73.mCAR-pNK cells during incubation for 6 hours. Then, the cell medium was removed and cells were rinsed three times with phosphate-free buffer (117 mM NaCl, 5.3 mM KCl, 1.8 mM MgCl2, 26 mM NaHCO3, 10 mM glucose, pH 7.4, diluted in ddH2O). AMP (250 μM final), diluted in phosphate-free buffer, was added and incubated for 10 min at 37° C. Finally, the phosphate (Pi) concentrations resulting from AMP hydrolysis were measured using a malachite green phosphate assay kit following the manufacturer's instructions.

[3] = test system: GBM43 cells; assay: Killing of CQ-treated GBM43 cells by pNK cells; format: cell-based, human; settings: E/T ratio 5, 4 h
Method: GBM43 cells were first treated with CQ (varying concentrations), then collected and re-seeded into 96 wells. After overnight culture, the NK cells (NK92 control cells and pNK cells against BECN1^−GBM43) were added at an E/T ratio of 5 and co-incubated for 4 h.
To further investigate the impact of the inhibition of autophagy on the cytotoxic capacity of NK cells, CQ-treated GBM43 cells or BECN1^− GBM43 cells were incubated with pNK cells for 4 h at an E/T ratio of 5.

[4] = test system: GBM43 cells; assay: Surface expression of NKG2DL, CD73 and GD2 on GBM43 cells after CQ (flow cytometry); format: cell-based, human; settings: 24 h
Method: In addition to the increase in NK cell intratumoral infiltration, NK2G2DL expression (MFI and percentage) on GBM43 cells after 24 hours of treatment with various concentrations of CQ was evaluated.

[5] = test system: GBM; settings: chronic administration, controlled randomized trial / Phase III, diphosphate salt, cited from earlier work
[6] = test system: GBM43-Luc cells; assay: Orthotopic GBM43 (Luc) xenograft model; format: in vivo, NSG mice
Method: Additionally, orthotopic GBM xenografts were generated using NSG mice as previously described. Briefly, on day 0, the GBM43 (Luc) cells (1×10^5) were stereotactically implanted into the right forebrain through a digitalized stereotactic delivery system. […] CD73.mCAR-pNK cells were administered once a week for three weeks. Tumor volumes were monitored and recorded using the Spectral Ami Optical imaging system. Body weights of the mice were also recorded during the treatment period. At the end of the treatment, the mice were sacrificed and whole brain tissues from each mouse were harvested for adenosine measurement and IHC/IF analyses.
Immunohistochemistry (IHC) and immunofluorescence (IF) staining were carried out at the Histology Research Laboratory at the Purdue University College of Veterinary Medicine (West Lafayette, Ind.). Briefly, the tumors were fixed in 10% neutral-buffered formalin, embedded in paraffin, and cut into 3-5 μm sections.
For intracranial GBM xenografts, the NK cells in tumors were detected through the staining using human NKp46/NCR1 antibody. CCL5 and CXCL10 expression in the tumors were detected through the staining using human CCL5/RANTES antibody and CXCL10 antibody, respectively. CD73 expression in the tumors was detected through the staining using human CD73 antibody.
In addition to the foregoing, intratumoral adenosine concentrations were also assessed. Brain tissues were harvested post-treatment, rinsed with cold PBS and homogenized in PBS. After that, the suspension was centrifuged at 10,000 g for 10 minutes at 4° C. and the supernatant was collected. Adenosine concentrations were determined using an Adenosine Assay Kit according to the manufacturer's directions. The IHC staining was performed as described above.

[7] = test system: GBM43 cells; assay: GBM43 cell viability after CQ treatment (CCK-8); format: cell-based, human; settings: 24 h
Method: Alternatively, autophagy was inhibited pharmacologically via treatment with chloroquine (CQ), a common FDA-approved autophagy inhibitor (see FIG. 11). These targeting approaches were tested on both NK cell infiltration and effector functions. For this approach, GBM43 cells were treated with different concentrations of CQ. To determine in vitro cell viability in response to CQ, GBM43 cells were seeded in 96-well plates at a density of 1×10^4 cells/well. After overnight culture, the cells were treated with different concentrations of CQ and incubated for another 24 hours. The cell viability was then determined with CCK-8 assay analysis.

[8] = test system: GBM43 cells; assay: ELISA of CCL5 and CXCL10 in supernatant of GBM43 cells; format: cell-based, human; settings: CQ 50 μM, 24 h
Excerpt: To evaluate changes in the protein levels of these chemokines and gain more insight into the underlying molecular mechanisms, chemokine concentrations were quantified in the conditioned media of CQ-treated GBM43 cells using ELISA in absence and presence of various pharmacological inhibitors driving signaling pathways for these chemokines. This included the PI3K inhibitor LY294002, NF-κB inhibitor BAY11-7082 and JNK inhibitor SP600125.
More specifically, to measure secreted CCL5 and CXCL10, GBM43 cells were treated with CQ at a final concentration of 50 μM in presence or absence of various small molecule inhibitors, including LY294002, BAY11-7082 and SP600125 for 24 hours. Supernatants were collected and the levels of CCL5 and CXCL10 were quantified using Human CCL5 and CXCL10 Biolegend-ELISA MAX™ Deluxe Sets according to the manufacturer's directions. To look at the levels of multiple chemokines secretion from GBM43 cells, the cell culture supernatants were also collected and all the selected targets were determined with the chemokine array provided by Eve Technologies (Calgary, Canada).

Substance: Chloroquine diphosphate salt [CQ]
- CCL5 mRNA in GBM43 cells ([1]; CQ-treated): substantial upregulation
- CXCL10 mRNA in GBM43 cells ([1]; CQ-treated): substantial upregulation
- CCL2 mRNA in GBM43 cells ([1]; inhibition of autophagy): decreased transcriptional levels
- CXCL12 mRNA in GBM43 cells ([1]; inhibition of autophagy): decreased transcriptional levels
- production of adenosine in GBM cells mediated by CD73 [2]: significantly reduced
- killing of CQ-treated GBM43 cells by human NK cells [3]: sensitize GBM cells to superior killing
- expression of CD73 (MFI) on GBM43 cells ([4]; CQ 6.25 μM): ~70 % of control
- expression of GD2 (MFI) on GBM43 cells ([4]; CQ 50 μM or higher): decreased
- NKG2DL expression (% and MFI) on GBM43 cells ([4]; CQ at various concentrations): increased significantly
- percentage expression (%) of GD2 on GBM43 cells ([4]; CQ up to 100 μM then constant, control cells ~58%): ~46%
- response of GBM to antineoplastic therapy with added chloroquine [5]: enhance clinical responses
- response of GBM to antineoplastic therapy with added chloroquine ([5]; listed as chloroquine (CQ)): significantly enhanced response
- tumor growth (bioluminescence imaging) ([6]; CQ 50 mg/kg IP, CD73.mCAR-pNK intracranial, weekly for three weeks, vs control group): no significant effect
- CCL5 expression in tumor tissues (IHC) ([6]; mouse, in vivo): robustly up-regulated
- CXCL10 expression in tumor tissues (IHC) ([6]; mouse, in vivo): robustly up-regulated
- crossing of the blood-brain barrier in vivo ([6]; mouse, in vivo): able to cross the blood-brain barrier
- IC50 [7]: 67.1 µM
- secreted CCL5 vs untreated control cells [8]: significantly higher amounts
- secreted CXCL10 vs untreated control cells [8]: significantly higher amounts
